The source of these data is patent US4024246A, “Antibiotic A-22082 and process for production thereof” (Eli Lilly and Company, priority 1976, dated 1977).

SMILES strings stand for the structures. Where two headings read alike, the source gives them in different places. *1 amine or outer side, *2 acyl side, *3 side chain or, on linkers, in order; H or OH if unused. Where a SMILES comes first, the peptide text is derived from it. Bridges are numbered along the chain shown (N, C = ends). [ ]: non-standard residue; d: D form. The star is where a group is joined. ξ: configuration not given here. Orn(4R-OH,5R-OH) = O=C([C@H](C[C@@H](O)[C@@H](O)N[*:3])N[*:1])[*:2]; hTyr(3S-OH,4S-OH) = N[C@H](C(=O)O)[C@H](O)[C@@H](O)c1ccc(O)cc1; ξOrn(4,5-diOH) = O=C(C(CC(O)C(O)N[*:3])N[*:1])[*:2]; ξhTyr(βξ-OH,γξ-OH) = NC(C(=O)O)C(O)C(O)c1ccc(O)cc1; Pro(3S-OH,4S-Me) = C[C@H]1CN[C@H](C(=O)O)[C@H]1O; Linoleoyl = CCCCC/C=C\C/C=C\CCCCCCCC(=O)*; ξPro(3ξ-OH,4ξ-Me) = CC1CNC(C(=O)O)C1O; Hyp = O=C(O)[CH]1C[CH](O)CN1; X1 = CCCCCC=CCC=CCCCCCCCC(=O)* Bounds are passed on as bounds.

Series [1] concerns dermatophytes. Conditions: reported by F. Benz et al., Helv. Chim. Acta 57, 2459-2477 (1974); cited from earlier work.
Series [2] concerns Trichophyton schoenleinii. In words: disc-diffusion test, Trichophyton schoenleinii. It is filed as cell-based. To be noted: Table III; 1 isolate. Here is the method: (§1) Antibiotic A-22082 is a useful antifungal agent. […] Antifungal activity was measured by the conventional disc-diffusion method (6-mm pads were dipped in solutions containing antibiotic A-22082; pads were placed on agar plates seeded with test organism). Table II summarizes the minimal inhibitory concentration (MIC) per disc at which antibiotic A-22082 inhibited representative organisms.
(§2) Antibiotic A-22082 is very active in in vitro disc-diffusion tests against dermatophytes.

Another series deals with Keratinomyces ajellio. Description: disc-diffusion test, Keratinomyces ajellio. It is filed as cell-based. Conditions: Table III; 1 isolate. Here is the method: as §1, §2
The subject of series [3] is dermatophytes. In words: in vitro activity against dermatophytes. The format is cell-based. To be noted: in words. The method, then: as §1, §2
The nature of another series: electrometric titration. It is filed as physicochemical. To be noted: 66% aqueous dimethylformamide, initial pH 6.9.
The test system of the next series is mice. Description: acute toxicity in mice. It is filed as in vivo. The method, then:
3 times over 24 hours (a total of 600 mg./kg.).

A further series has as its system Trichophyton gallinae. In words: disc-diffusion test, Trichophyton gallinae. The format is cell-based. To be noted: Table III; 1 isolate. Here is the method:
as §1, §2
A general note: Agar diffusion results depend on both activity and mobility in agar.

Series [4] concerns Candida albicans. Description: in vivo protection of Candida albicans-infected mice. To be noted: two doses. Here is the method:
A measure of the protection afforded is the ED50 value [the effective dose in mg./kg. which protects 50 percent of the mice; see W. Wick et al., J. Bacteriol. 81, 233-235 (19610]. The ED50 values for antibiotic A-22082 against Candida albicans in mice were 30 mg./kg. (intraperitoneal administration) and 50 mg./kg. (subcutaneous administration).

Another series relates to Trichophyton quinckeanum. In words: disc-diffusion test, Trichophyton quinckeanum. To be noted: Table III; 1 isolate. It is filed as cell-based. The method, then:
as §1, §2

Series [5] has as its system Trichophyton mentagrophytes. Description: disc-diffusion antifungal test, Trichophyton mentagrophytes. It is filed as cell-based. Conditions: Table II, 6-mm pads, agar plates. Here is the method:
as §1, §2

A further series can be described thus: solubility. The format is physicochemical.
The next series has as its system Philaphere jean salemi. Description: disc-diffusion test, Philaphere jean salemi. To be noted: Table III; 1 isolate. The format is cell-based. Here is the method:
as §1, §2

In series [6] the test system is Epidermatophyton floccosum. In words: disc-diffusion test, Epidermatophyton floccosum. It is filed as cell-based. Conditions: Table III; 1 isolate. The method, then:
as §1, §2

The next series relates to Trichophyton rubrum. Description: disc-diffusion test, Trichophyton rubrum. To be noted: Table III; 1 isolate. The format is cell-based. Here is the method: as §1, §2
Series [7] has as its system Candida albicans. Description: disc-diffusion antifungal test, Candida albicans. The format is cell-based. To be noted: Table II, 6-mm pads, agar plates. Here is the method:
as §1

In another series the test system is Trichophyton terrestre. Description: disc-diffusion test, Trichophyton terrestre. It is filed as cell-based. Conditions: Table III; 1 isolate. Here is the method:
as §1, §2

Another series relates to Trichophyton meginini. In words: disc-diffusion test, Trichophyton meginini. The format is cell-based. To be noted: Table III; 1 isolate. The method, then: as §1, §2
The subject of the next series is Candida tropicalis. In words: disc-diffusion antifungal test, Candida tropicalis. The format is cell-based. To be noted: Table II, 6-mm pads, agar plates. The method, then:
as §1

A further series deals with Nannizzia incurvata. In words: disc-diffusion test, Nannizzia incurvata. To be noted: Table III; 1 isolate. The format is cell-based. Here is the method: as §1, §2

As to `CCCCCC=CCC=CCCCCCCCC(=O)NC1CC(O)C(O)NC(=O)C2C(O)C(C)CN2C(=O)C(C(C)O)NC(=O)C(C(O)C(O)c2ccc(O)cc2)NC(=O)C2CC(O)CN2C(=O)C(C(C)O)NC1=O` (stereo not drawn) [Echinocandin B] (X1-[ξOrn(4,5-diOH)]T[Hyp][ξhTyr(βξ-OH,γξ-OH)]T[ξPro(3ξ-OH,4ξ-Me)]; lactam 1-C; configuration not given here), the activity against dermatophytes result in the series on dermatophytes [1] was “inactive against dermatophytes”.

Consider `CCCCC/C=C\C/C=C\CCCCCCCC(=O)N[C@H]1C[C@@H](O)[C@@H](O)NC(=O)[C@@H]2[C@@H](O)[C@@H](C)CN2C(=O)[C@H]([C@@H](C)O)NC(=O)[C@H]([C@H](O)[C@@H](O)c2ccc(O)cc2)NC(=O)[C@@H]2C[C@@H](O)CN2C(=O)[C@H]([C@@H](C)O)NC1=O` [antibiotic A-22082] (Linoleoyl-[Orn(4R-OH,5R-OH)]T[Hyp][hTyr(3S-OH,4S-OH)]T[Pro(3S-OH,4S-Me)]; lactam 1-C), for which the MIC in [2] is given as 0.0195 mcg/disc; with Keratinomyces ajellio it was 0.156 mcg/disc; against Trichophyton gallinae, more than 1.25 mcg/disc; with Trichophyton quinckeanum it was more than 1.25 mcg/disc; in the series with Philaphere jean salemi it was more than 1.25 mcg/disc; in series [6] it was 1.25 mcg/disc. Further, the MIC entry with Trichophyton rubrum is “< .0098 mcg/disc”; with Trichophyton terrestre it was 0.0195 mcg/disc; with Trichophyton meginini, 0.0195 mcg/disc; against Nannizzia incurvata, 0.312 mcg/disc. The activity against dermatophytes entry with dermatophytes [3] is recorded as “very active”; with dermatophytes [3] (listed as A-22082), “active against dermatophytes”. For the same compound, the pKa value in “electrometric titration” is 12.7. Further, the “signs of acute toxicity” value is listed as “no signs of acute toxicity” in the series on mice (intraperitoneal, 100 mg./kg. twice per day for three days (total 600 mg./kg.)); “no signs of acute toxicity” with mice (ip, 200 mg./kg. 3 times over 24 hours (total 600 mg./kg.)); “no signs of acute toxicity” in the series with mice (subcutaneous, 100 mg./kg. twice per day for three days (total 600 mg./kg.)). The “ED50 (effective dose which protects 50 percent of the mice)” value in the series with Candida albicans [4] (intraperitoneal administration) was determined as 30 mg/kg; with Candida albicans [4] (subcutaneous administration), 50 mg/kg. In addition, the “protection against C. albicans” value with Candida albicans [4] (Candida albicans-infected mice) is reported as “protection against C. albicans was provided”. The results for the “minimal inhibitory concentration (MIC) per disc” value (in series [5]; in the series on Candida albicans [7]; in the series with Candida tropicalis) were 0.078 mcg./disc, 0.625 mcg./disc and 3.12 mcg./disc, respectively. In addition, the “solubility in nonpolar organic solvents” value in “solubility” (diethyl ether, petroleum ether) is recorded as “insoluble”. Further, the “solubility in aqueous solutions” value in “solubility” (especially those having a pH greater than 7.0) is recorded as “soluble”. Further, the “solubility in organic solvents” value in “solubility” (methanol, ethanol, dimethylformamide, dimethyl sulfoxide, ethyl acetate) is reported as “soluble”.
